The values below come from patent publication US9193722B2, “Tri-cyclic pyrazolopyridine kinase inhibitors” (Vertex Pharmaceuticals Incorporated, priority 2008, dated 2015).

What all share (format): biochemical
The target in one assay is PKC theta kinase (Homo sapiens, UniProt Q04759). The assay can be described thus: PKC theta kinase inhibition, coupled-enzyme (NADH absorbance) assay, Ki. As to conditions: 240 μM ATP, 18 nM PKC theta kinase, 30° C. The gist of the method:
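Enzyme and compound equilibrated 10 min at 30 °C before reaction in HEPES pH 7.5 buffer with MgCl2, NaCl, EDTA and Brij. Activity tracked as NADH loss at 340 nm through a coupled system. Initial-rate data fitted by non-linear regression to give Ki.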

In the next assay the target is PKC delta kinase (Homo sapiens, UniProt Q05655). The assay is described as follows: PKC delta kinase inhibition, coupled-enzyme (NADH absorbance) assay, Ki. The note with it: 150 μM ATP, 46 nM PKC delta kinase, 30° C.; read-out: Ki PKC delta. The gist of the method: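 Enzyme and compound pre-equilibrated 10 min at 30° C before adding ATP to 150 μM final. Buffer: HEPES pH 7.5 (100 mM), 10 mM MgCl2, 25 mM NaCl, 0.1 mM EDTA, 0.01% Brij.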
Sequence of PKC delta kinase (Q05655 whole entry): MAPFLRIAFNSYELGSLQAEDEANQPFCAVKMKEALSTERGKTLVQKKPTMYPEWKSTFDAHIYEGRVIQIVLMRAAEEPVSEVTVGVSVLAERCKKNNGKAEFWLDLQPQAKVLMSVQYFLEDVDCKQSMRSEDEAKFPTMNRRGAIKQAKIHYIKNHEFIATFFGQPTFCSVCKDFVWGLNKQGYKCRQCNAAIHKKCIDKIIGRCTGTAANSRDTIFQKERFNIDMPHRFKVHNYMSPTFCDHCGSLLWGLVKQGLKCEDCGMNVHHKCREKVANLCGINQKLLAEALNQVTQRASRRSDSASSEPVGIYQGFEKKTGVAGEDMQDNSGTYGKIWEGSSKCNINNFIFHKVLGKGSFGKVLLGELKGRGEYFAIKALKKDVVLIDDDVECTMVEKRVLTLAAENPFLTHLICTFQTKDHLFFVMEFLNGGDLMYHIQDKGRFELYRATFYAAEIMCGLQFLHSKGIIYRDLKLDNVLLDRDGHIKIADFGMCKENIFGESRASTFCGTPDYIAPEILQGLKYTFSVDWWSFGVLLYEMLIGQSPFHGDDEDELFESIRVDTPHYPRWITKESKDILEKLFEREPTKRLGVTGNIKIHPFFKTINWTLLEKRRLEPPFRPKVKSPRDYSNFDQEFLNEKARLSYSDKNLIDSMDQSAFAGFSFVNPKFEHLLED

For a further assay, the target named is PKC alpha kinase (Homo sapiens, UniProt P17252). The assay is described as follows: PKC alpha kinase inhibition, coupled-enzyme (NADH absorbance) assay, Ki. As to conditions: 130 μM ATP, 4.5 nM PKC alpha kinase, 30° C. In a few lines:
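Ki derived by non-linear regression of initial rates from a coupled assay tracking NADH absorbance at 340 nm over 15 min at 30 °C. ATP was 130 μM final after a 10 min compound–enzyme preincubation in HEPES pH 7.5 buffer with MgCl2, CaCl2, NaCl, EDTA and Brij.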

Sequence of PKC theta kinase (Q04759 whole entry): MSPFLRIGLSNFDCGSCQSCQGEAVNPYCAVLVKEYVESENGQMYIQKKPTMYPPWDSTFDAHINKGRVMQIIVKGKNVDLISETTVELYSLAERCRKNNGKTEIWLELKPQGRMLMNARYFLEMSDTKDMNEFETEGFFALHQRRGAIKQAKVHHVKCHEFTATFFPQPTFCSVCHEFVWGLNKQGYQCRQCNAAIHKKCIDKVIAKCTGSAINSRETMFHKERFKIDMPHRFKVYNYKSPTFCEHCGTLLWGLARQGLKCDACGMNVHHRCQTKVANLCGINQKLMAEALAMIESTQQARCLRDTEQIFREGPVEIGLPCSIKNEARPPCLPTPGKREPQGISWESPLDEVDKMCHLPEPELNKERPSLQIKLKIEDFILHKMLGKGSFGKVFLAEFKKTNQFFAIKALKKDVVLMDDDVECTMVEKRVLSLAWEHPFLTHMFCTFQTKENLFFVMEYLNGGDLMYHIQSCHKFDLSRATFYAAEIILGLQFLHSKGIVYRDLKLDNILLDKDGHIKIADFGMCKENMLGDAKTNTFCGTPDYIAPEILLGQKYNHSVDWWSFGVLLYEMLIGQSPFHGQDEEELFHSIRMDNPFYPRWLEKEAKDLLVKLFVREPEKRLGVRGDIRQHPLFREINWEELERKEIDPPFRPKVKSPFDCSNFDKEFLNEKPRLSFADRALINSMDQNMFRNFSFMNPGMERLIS

As to `CCC[C@H]1CN(c2ccc(C(F)(F)F)c(-c3n[nH]c4ncccc34)n2)C[C@H]1N` [Compound 340], the Ki at PKC theta kinase was over 700 nM; at PKC delta kinase it was over 1250 nM; at PKC alpha kinase, over 1250 nM.

Turning to `CC(C)CC1(C(F)(F)F)CN(c2ccc(C(F)(F)F)c(-c3n[nH]c4ncccc34)n2)CCC1N` (stereo not drawn) [Compound 405], the Ki was under 500 nM at PKC theta kinase, under 500 nM on PKC delta kinase and over 1250 nM at PKC alpha kinase.

Regarding `NC[C@@H]1CCCN1c1ccc(C(F)(F)F)c(-c2n[nH]c3ncccc23)n1` [Compound 356], the values for the Ki at PKC theta kinase, on PKC delta kinase and at PKC alpha kinase were over 700 nM, over 1250 nM and over 1250 nM, respectively.

Consider `CC(C)C[C@@H]1CC(O)(c2cccc(-c3n[nH]c4ncccc34)n2)CCN1` (stereo partly drawn) [Compound 73], for which the Ki was over 700 nM at PKC theta kinase, over 2000 nM on PKC delta kinase and over 1250 nM on PKC alpha kinase.

As to `CC(C)C1(C)OC(=O)N2CCN(c3ccc(F)c(-c4n[nH]c5ncccc45)n3)CC21` (stereo not drawn) [Compound 439], the Ki at PKC theta kinase is under 500 nM; at PKC delta kinase it was over 1250 nM; on PKC alpha kinase it was over 1250 nM.

Consider `NC1CN(c2cccc(-c3n[nH]c4ncccc34)n2)C1` [Compound 63], for which the results for the Ki at PKC theta kinase, on PKC delta kinase and at PKC alpha kinase were under 2800 nM, over 2000 nM and over 1250 nM, respectively.

For the compound `OC1(C2CN(c3cccc(-c4n[nH]c5ncccc45)n3)CCN2)CC1` (stereo not drawn) [Compound 186], the values for the Ki on PKC theta kinase, at PKC delta kinase and on PKC alpha kinase were under 50 nM, under 50 nM and under 2800 nM, respectively.

Regarding `CC(C)C(C)(O)C1CN(c2nc(-c3n[nH]c4ncccc34)ccc2F)CCN1` (stereo not drawn) [Compound 374], the Ki at PKC theta kinase is under 50 nM; on PKC delta kinase it was under 500 nM; on PKC alpha kinase, over 1250 nM.

Regarding `CCC(N)C1CCCN(c2ccc(F)c(-c3n[nH]c4ncccc34)n2)C1` (stereo not drawn) [Compound 291], the Ki is under 50 nM at PKC theta kinase, under 500 nM on PKC delta kinase and under 2800 nM at PKC alpha kinase.

For the compound `CCC(N)C1(C(F)(F)F)CCN(c2ccc(F)c(-c3n[nH]c4ncccc34)n2)C1` (stereo not drawn) [Compound 448], the Ki was under 500 nM at PKC theta kinase, under 2800 nM at PKC delta kinase and over 1250 nM at PKC alpha kinase.

Take `C[C@@H]1CN(c2ccc(C(F)(F)F)c(-c3n[nH]c4ncccc34)n2)CCN1` [Compound 117]: the Ki was under 500 nM at PKC theta kinase, over 1250 nM at PKC delta kinase and over 1250 nM at PKC alpha kinase.

`OC1(c2cccc(-c3n[nH]c4ncccc34)n2)CCNCC1` [Compound 60, 4-(6-(1H-pyrazolo[3,4-b]pyridin-3-yl)pyridin-2-yl)piperidin-4-ol]: the Ki at PKC theta kinase is over 700 nM; on PKC delta kinase, under 500 nM; at PKC alpha kinase, over 1250 nM.

With `FC(F)(F)c1ccc(N2CCNC(c3ccc(Cl)cc3)C2)nc1-c1n[nH]c2ncccc12` (stereo not drawn) [Compound 173], the results for the Ki at PKC theta kinase, on PKC delta kinase and at PKC alpha kinase were over 700 nM, over 1250 nM and over 1250 nM, respectively.

On to `CC(C)CC1(C)CN(c2ccc(Cl)c(-c3n[nH]c4ncccc34)n2)CCN1` (stereo not drawn) [Compound 86], for which the Ki on PKC theta kinase, on PKC delta kinase and on PKC alpha kinase was under 50 nM throughout.

Take `CS(=O)(=O)NCC1CCCN(c2ccc(F)c(-c3n[nH]c4ncccc34)n2)C1` (stereo not drawn) [Compound 371]: the Ki is over 700 nM on PKC theta kinase, over 1250 nM at PKC delta kinase and over 1250 nM on PKC alpha kinase.

As to `CC(C)(F)CC1CN(c2ccc(C(F)(F)F)c(-c3n[nH]c4ncccc34)n2)CCN1` (stereo not drawn) [Compound 102], the results for the Ki at PKC theta kinase, on PKC delta kinase and on PKC alpha kinase were under 50 nM, over 1250 nM and over 1250 nM, respectively.

In the case of `CC(C)(C)[C@H]1CN(c2cccc(-c3n[nH]c4ncccc34)n2)CCN1` [Compound 76], the Ki at PKC theta kinase is under 50 nM; on PKC delta kinase, under 500 nM; on PKC alpha kinase, under 2800 nM.

Consider `Cc1cc(N2CCC(N)CC2)nc(-c2n[nH]c3ncccc23)c1Cl` [Compound 109], for which the Ki was under 2800 nM at PKC theta kinase, over 1250 nM at PKC delta kinase and over 1250 nM at PKC alpha kinase.

As to `CC(C)CC1(O)CN(c2ccc(C(F)(F)F)c(-c3n[nH]c4ncccc34)n2)CCC1C#N` (stereo not drawn) [Compound 401], the Ki is under 50 nM on PKC theta kinase, under 2800 nM on PKC delta kinase and over 1250 nM on PKC alpha kinase.

On to `FC(F)(F)c1ccc(C2CCNCC2)nc1-c1n[nH]c2ncccc12` [Compound 431], for which the Ki was over 700 nM on PKC theta kinase, over 1250 nM on PKC delta kinase and over 1250 nM on PKC alpha kinase.

Turning to `CCC(C)(O)C1CN(c2cccc(-c3n[nH]c4ncccc34)n2)CCN1` (stereo not drawn) [Compound 160], the Ki was under 50 nM at PKC theta kinase, under 500 nM on PKC delta kinase and under 2800 nM at PKC alpha kinase.

For `N#CCCC1CN(c2ccc(F)c(-c3n[nH]c4ncccc34)n2)CCC1O` (stereo not drawn) [Compound 458], the Ki at PKC theta kinase was under 500 nM; at PKC delta kinase, over 1250 nM; on PKC alpha kinase, over 1250 nM.

In the case of `CC(C)C(C)(O)C1CN(c2cc(CO)cc(-c3n[nH]c4ncccc34)n2)CCN1` (stereo not drawn) [Compound 454], the Ki was under 50 nM at PKC theta kinase, under 500 nM on PKC delta kinase and under 2800 nM at PKC alpha kinase.

As to `CC(C)C[C@H]1CN(c2cncc(-c3n[nH]c4ncccc34)n2)CCN1` [Compound 39, (S)-3-(6-(3-isobutylpiperazin-1-yl)pyrazin-2-yl)-1H-pyrazolo[3,4-b]pyridine], the Ki at PKC theta kinase was under 50 nM; on PKC delta kinase, under 500 nM; on PKC alpha kinase, under 2800 nM.

Take `CC(C)(O)CC1CN(c2ccc(C(F)(F)F)c(-c3n[nH]c4ncccc34)n2)CCN1` (stereo not drawn) [Compound 72]: the Ki at PKC theta kinase is under 500 nM; on PKC delta kinase it was over 2000 nM; on PKC alpha kinase it was over 1250 nM.

As for `CC(C)(C)CC(N)C1CCCN(c2ccc(F)c(-c3n[nH]c4ncccc34)n2)C1` (stereo not drawn) [Compound 317], the Ki at PKC theta kinase is under 50 nM; at PKC delta kinase, over 1250 nM; at PKC alpha kinase it was over 1250 nM.

In the case of `NC1CCN(c2ccc(F)c(-c3n[nH]c4ncccc34)n2)CC1` [Compound 368], the Ki at PKC theta kinase was under 500 nM; on PKC delta kinase, over 1250 nM; on PKC alpha kinase, over 1250 nM.

For the compound `CC(C)(F)C(C)(O)C1CN(c2ccc(F)c(-c3n[nH]c4ncccc34)n2)CCN1` (stereo not drawn) [Compound 250], the results for the Ki on PKC theta kinase, on PKC delta kinase and on PKC alpha kinase were under 50 nM, under 500 nM and over 1250 nM, respectively.

For `CCOC(=O)N1CCN(c2ccc(F)c(-c3n[nH]c4ncccc34)n2)CC1C(C)(O)C(C)C` (stereo not drawn) [Compound 418], the Ki is over 700 nM at PKC theta kinase, over 1250 nM on PKC delta kinase and over 1250 nM at PKC alpha kinase.

`CCCC1(C)CN(c2ccc(C(F)(F)F)c(-c3n[nH]c4ncccc34)n2)CCC1N` (stereo not drawn) [Compound 435]: the Ki is under 50 nM on PKC theta kinase, under 500 nM at PKC delta kinase and under 500 nM on PKC alpha kinase.

For the compound `CNC(=O)CC1CN(c2ccc(C(F)(F)F)c(-c3n[nH]c4ncccc34)n2)CCN1` (stereo not drawn) [Compound 210], the Ki was under 500 nM on PKC theta kinase, over 1250 nM on PKC delta kinase and over 1250 nM on PKC alpha kinase.

As for `CC(C)(C)[C@H]1CN(c2ccc(C(F)(F)F)c(-c3n[nH]c4ncccc34)n2)CCN1` [Compound 77], the Ki is under 500 nM on PKC theta kinase, over 2000 nM on PKC delta kinase and over 1250 nM at PKC alpha kinase.

On to `CC(F)(F)CC1CN(c2cccc(-c3n[nH]c4ncccc34)n2)CCN1` (stereo not drawn) [Compound 54], for which the values for the Ki at PKC theta kinase, on PKC delta kinase and on PKC alpha kinase were under 50 nM, under 500 nM and under 2800 nM, respectively.

Regarding `COC(C)(C)C1CN(c2ccc(F)c(-c3n[nH]c4ncccc34)n2)CCN1` (stereo not drawn) [Compound 190], the Ki at PKC theta kinase was under 500 nM; at PKC delta kinase, over 1250 nM; on PKC alpha kinase, over 1250 nM.

Regarding `CC(C)C[C@H]1CN(c2cccc(-c3n[nH]c4ncc(Cl)cc34)n2)CCN1` [Compound 38], the Ki is under 50 nM on PKC theta kinase, under 500 nM on PKC delta kinase and under 500 nM on PKC alpha kinase.

In the case of `CC(C)C[C@@H]1CN(c2cccc(-c3n[nH]c4ncccc34)n2)CC[C@@H]1N` [Compound 169], the Ki was under 50 nM at PKC theta kinase, under 50 nM at PKC delta kinase and under 500 nM on PKC alpha kinase.

On to `CC(C)C(O)(CF)C1CN(c2ccc(F)c(-c3n[nH]c4ncccc34)n2)CCN1` (stereo not drawn) [Compound 264], for which the results for the Ki at PKC theta kinase, at PKC delta kinase and on PKC alpha kinase were under 50 nM, under 500 nM and over 1250 nM, respectively.

Regarding `CC(C)C(N)C1CN(c2ccc(F)c(-c3n[nH]c4ncccc34)n2)CCO1` (stereo not drawn) [Compound 346], the Ki at PKC theta kinase is under 50 nM; on PKC delta kinase it was under 2800 nM; at PKC alpha kinase, over 1250 nM.

For the compound `CC(C)(C)C(N)C1CCN(c2ccc(F)c(-c3n[nH]c4ncccc34)n2)C1` (stereo not drawn) [Compound 421], the Ki on PKC theta kinase is under 50 nM; on PKC delta kinase, under 500 nM; at PKC alpha kinase it was over 1250 nM.

Regarding `CS(=O)(=O)NCC1CCCN(c2ccc(C(F)(F)F)c(-c3n[nH]c4ncccc34)n2)C1` (stereo not drawn) [Compound 372], the figures for the Ki on PKC theta kinase, on PKC delta kinase and at PKC alpha kinase were over 700 nM, over 1250 nM and over 1250 nM, respectively.

For `CC(C)CC1(O)CNCCN(c2ccc(F)c(-c3n[nH]c4ncccc34)n2)C1` (stereo not drawn) [Compound 196], the Ki was under 500 nM on PKC theta kinase, over 1250 nM at PKC delta kinase and over 1250 nM on PKC alpha kinase.

Consider `NC(=O)C1(N)CCN(c2ccc(C(F)(F)F)c(-c3n[nH]c4ncccc34)n2)CC1` [Compound 398], for which the Ki on PKC theta kinase was over 700 nM; at PKC delta kinase, over 1250 nM; on PKC alpha kinase, over 1250 nM.
